Experiments:
[1] = test system: HCT-116 (colon cancer); assay: MTT cell viability assay, HCT-116; assay type: cell-based, human; conditions: for IC50: Homo sapiens, HCT-116, 72 h, MTT assay, 72 h of incubation
In short: (§1)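 HCT-116 and HeLa cells in DMEM/10% FBS exposed 72 h to compounds over 1–100 µM. Viability by MTT (0.5 mg/mL, 2 h, 37 °C), formazan dissolved in DMSO and read at 550 nm; mean ± SD of at least three independent experiments.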

[2] = test system: MCF-7 (breast cancer); assay: MTT cell viability assay, MCF-7; assay type: cell-based, human; conditions: for IC50: Homo sapiens, MCF7, 72 h, MTT assay, 72 h of incubation
In short: (§2)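 Cells in DMEM with 10% FBS, 3 × 10^3 per well, exposed to compounds at 1–100 µM for 72 h at 37 °C. MTT at 0.5 mg/mL for 2 h, formazan dissolved in DMSO and read at 550 nm. Mean ± SD of at least three independent experiments, each in triplicate.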

[3] = test system: HeLa (cervical cancer); assay: MTT cell viability assay, HeLa; assay type: cell-based, human; conditions: for IC50: Homo sapiens, HeLa, MTT assay, 72 h of incubation
In short: as §1

[4] = test system: HaCaT (human keratinocyte cell line); assay: MTT cell viability assay, non-cancerous HaCaT; assay type: cell-based; conditions: Homo sapiens, HaCaT, 72 h, 72 h of incubation, non-cancerous keratinocytes
In short: as §2

## Cc1cc(S(=O)(=O)N=C2NCCN2Cc2ccc(Br)cc2)c(SCc2nc(N)nc(N3CCN(c4ccc(Cl)c(Cl)c4)CC3)n2)cc1Cl [Compound 110]
[1]
  IC50: 20 ± 0.6 µM
[2]
  IC50: 23 ± 1 µM
[3]
  IC50: 85 ± 5 µM
[4]
  IC50: 123 ± 6 µM

## Cc1cc(S(=O)(=O)N=C2NCCN2Cc2cccc(C(F)(F)F)c2)c(SCc2nc(N)nc(N3CCCc4ccccc43)n2)cc1Cl [Compound 112]
[1]
  IC50: 15 ± 0.3 µM
[2]
  IC50: 17 ± 1 µM
[3]
  IC50: 15.5 ± 1 µM
[4]
  IC50: 29 ± 1 µM

## Cc1cc(S(=O)(=O)N=C2NCCN2Cc2cccc(C(F)(F)F)c2)c(SCc2nc(N)nc(N3CCN(c4ccc(C(F)(F)F)cc4)CC3)n2)cc1Cl [Compound 114]
[1]
  IC50: 5 ± 0.2 µM
[1]; IC50 value toward HaCaT cells/IC50 value toward HCT-116
  Selectivity Index (SI) HCT-116: 5.4
[2]
  IC50: 6.5 ± 0.3 µM
[2]; IC50 value toward HaCaT cells/IC50 value toward MCF-7
  Selectivity Index (SI) MCF-7: 4.1
[3]
  IC50: 12 ± 0.3 µM
[3]; IC50 value toward HaCaT cells/IC50 value toward HeLa
  Selectivity Index (SI) HeLa: 2.2
[4]
  IC50: 27 ± 1 µM

## Cc1cc(S(=O)(=O)N=C2NCCN2Cc2cccc(C(F)(F)F)c2)c(SCc2nc(N)nc(N3CCN(c4ccc(Cl)c(Cl)c4)CC3)n2)cc1Cl [Compound 115]
[1]
  IC50: 5.5 ± 0.2 µM
[2]
  IC50: 6.5 ± 0.2 µM
[3]
  IC50: 12 ± 1 µM
[4]
  IC50: 23 ± 0.5 µM

## COc1ccc(N2CCN(c3nc(N)nc(CSc4cc(Cl)c(C)cc4S(=O)(=O)N=C4NCCN4Cc4cccc(C(F)(F)F)c4)n3)CC2)cc1 [Compound 116]
[1]
  IC50: 6 ± 0.2 µM
[2]
  IC50: 8.5 ± 0.3 µM
[3]
  IC50: 17 ± 1 µM
[4]
  IC50: 31 ± 2 µM

## Cc1cc(S(=O)(=O)N=C2NCCN2Cc2cccc(C(F)(F)F)c2)c(SCc2nc(N)nc(N3CCN(Cc4ccccc4)CC3)n2)cc1Cl [Compound 117]
[1]
  IC50: 16 ± 0.5 µM
[2]
  IC50: 17 ± 1 µM
[3]
  IC50: 12 ± 0.2 µM
[4]
  IC50: 36 ± 2 µM

## Cc1cc(S(=O)(=O)N=C2NCCN2Cc2ccc(C(F)(F)F)cc2)c(SCc2nc(N)nc(N3CCOCC3)n2)cc1Cl [Compound 119]
[1]
  IC50: 13 ± 0.4 µM
[2]
  IC50: 13.5 ± 1 µM
[3]
  IC50: 18 ± 1 µM
[4]
  IC50: 41 ± 2 µM

## Cc1cc(S(=O)(=O)N=C2NCCN2Cc2ccc(C(F)(F)F)cc2)c(SCc2nc(N)nc(N3CCc4ccccc43)n2)cc1Cl [Compound 120]
[1]
  IC50: 9 ± 0.5 µM
[2]
  IC50: 11 ± 0.1 µM
[3]
  IC50: 12 ± 0.5 µM
[4]
  IC50: 24 ± 1 µM

## Cc1cc(S(=O)(=O)N=C2NCCN2Cc2ccc(C(F)(F)F)cc2)c(SCc2nc(N)nc(N3CCCc4ccccc43)n2)cc1Cl [Compound 121]
[1]
  IC50: 6 ± 0.1 µM
[2]
  IC50: 14 ± 1 µM
[3]
  IC50: 13 ± 1 µM
[4]
  IC50: 24 ± 1 µM

## Cc1cc(S(=O)(=O)N=C2NCCN2Cc2ccc(C(F)(F)F)cc2)c(SCc2nc(N)nc(Nc3ccccc3)n2)cc1Cl [Compound 122]
[1]
  IC50: 14 ± 0.4 µM
[2]
  IC50: 20 ± 1 µM
[3]
  IC50: 19 ± 0.5 µM
[4]
  IC50: 35 ± 1 µM

## Cc1cc(S(=O)(=O)N=C2NCCN2Cc2ccc(C(F)(F)F)cc2)c(SCc2nc(N)nc(Nc3ccc(F)cc3)n2)cc1Cl [Compound 123]
[1]
  IC50: 12 ± 0.5 µM
[2]
  IC50: 21 ± 0.6 µM
[3]
  IC50: 18 ± 1 µM
[4]
  IC50: 30 ± 1 µM

## Cc1cc(S(=O)(=O)N=C2NCCN2Cc2ccc(C(F)(F)F)cc2)c(SCc2nc(N)nc(Nc3cccc(Cl)c3)n2)cc1Cl [Compound 124]
[1]
  IC50: 9.5 ± 0.1 µM
[2]
  IC50: 10 ± 0.5 µM
[3]
  IC50: 15 ± 0.2 µM
[4]
  IC50: 31 ± 1 µM

## Cc1cc(S(=O)(=O)N=C2NCCN2Cc2ccc(C(F)(F)F)cc2)c(SCc2nc(N)nc(Nc3ccc(C(F)(F)F)cc3)n2)cc1Cl [Compound 125]
[1]
  IC50: 7.5 ± 0.2 µM
[2]
  IC50: 7.5 ± 0.2 µM
[3]
  IC50: 13 ± 0.5 µM
[4]
  IC50: 25 ± 1 µM

## COc1ccc(Nc2nc(N)nc(CSc3cc(Cl)c(C)cc3S(=O)(=O)N=C3NCCN3Cc3ccc(C(F)(F)F)cc3)n2)cc1 [Compound 126]
[1]
  IC50: 11 ± 0.6 µM
[2]
  IC50: 21 ± 1 µM
[3]
  IC50: 20 ± 1 µM
[4]
  IC50: 37 ± 1 µM

## Cc1cc(S(=O)(=O)N=C2NCCN2Cc2ccc(C(F)(F)F)cc2)c(SCc2nc(N)nc(NCc3ccccc3)n2)cc1Cl [Compound 127]
[1]
  IC50: 17 ± 0.5 µM
[2]
  IC50: 17.5 ± 1 µM
[3]
  IC50: 18 ± 1 µM
[4]
  IC50: 39 ± 2 µM

## Cc1cc(S(=O)(=O)N=C2NCCN2Cc2ccc(C(F)(F)F)cc2)c(SCc2nc(N)nc(N(C)c3ccccc3)n2)cc1Cl [Compound 128]
[1]
  IC50: 10 ± 0.3 µM
[2]
  IC50: 14 ± 0.5 µM
[3]
  IC50: 15 ± 0.4 µM
[4]
  IC50: 33 ± 1 µM

## Cc1cc(S(=O)(=O)N=C2NCCN2Cc2ccc(C(F)(F)F)cc2)c(SCc2nc(N)nc(N(C)c3ccc(Cl)cc3)n2)cc1Cl [Compound 129]
[1]
  IC50: 11 ± 0.1 µM
[2]
  IC50: 14 ± 0.5 µM
[3]
  IC50: 15 ± 1 µM
[4]
  IC50: 31 ± 1 µM

## Cc1cc(S(=O)(=O)N=C2NCCN2Cc2ccc(C(F)(F)F)cc2)c(SCc2nc(N)nc(N3CCN(C)CC3)n2)cc1Cl [Compound 130]
[1]
  IC50: 10.5 ± 0.4 µM
[2]
  IC50: 8 ± 0.3 µM
[3]
  IC50: 17 ± 0.5 µM
[4]
  IC50: 36 ± 1 µM

## Cc1cc(S(=O)(=O)N=C2NCCN2Cc2ccc(C(F)(F)F)cc2)c(SCc2nc(N)nc(N3CCN(c4ccccc4)CC3)n2)cc1Cl [Compound 131]
[1]
  IC50: 7 ± 0.2 µM
[2]
  IC50: 15 ± 0.5 µM
[3]
  IC50: 13 ± 0.5 µM
[4]
  IC50: 25 ± 1 µM

## Cc1cc(S(=O)(=O)N=C2NCCN2Cc2ccc(C(F)(F)F)cc2)c(SCc2nc(N)nc(N3CCN(c4ccc(F)cc4)CC3)n2)cc1Cl [Compound 132]
[1]
  IC50: 8 ± 0.2 µM
[2]
  IC50: 17 ± 0.4 µM
[3]
  IC50: 16 ± 1 µM
[4]
  IC50: 26 ± 1 µM

## Cc1cc(S(=O)(=O)N=C2NCCN2Cc2ccc(C(F)(F)F)cc2)c(SCc2nc(N)nc(N3CCN(c4ccccc4F)CC3)n2)cc1Cl [Compound 133]
[1]
  IC50: 8 ± 0.3 µM
[2]
  IC50: 16 ± 0.5 µM
[3]
  IC50: 14 ± 1 µM
[4]
  IC50: 25 ± 1 µM

## Cc1cc(S(=O)(=O)N=C2NCCN2Cc2ccc(C(F)(F)F)cc2)c(SCc2nc(N)nc(N3CCN(c4cccc(C(F)(F)F)c4)CC3)n2)cc1Cl [Compound 135]
[1]
  IC50: 5 ± 0.2 µM
[2]
  IC50: 6.5 ± 0.3 µM
[3]
  IC50: 7 ± 0.2 µM
[4]
  IC50: 19 ± 1 µM

## Cc1cc(S(=O)(=O)N=C2NCCN2Cc2ccc(C(F)(F)F)cc2)c(SCc2nc(N)nc(N3CCN(c4ccc(Cl)cc4)CC3)n2)cc1Cl [Compound 136]
[1]
  IC50: 5 ± 0.1 µM
[2]
  IC50: 6 ± 0.3 µM
[3]
  IC50: 10 ± 0.4 µM
[4]
  IC50: 21 ± 1 µM

## Cc1cc(S(=O)(=O)N=C2NCCN2Cc2ccc(C(F)(F)F)cc2)c(SCc2nc(N)nc(N3CCN(c4cccc(Cl)c4)CC3)n2)cc1Cl [Compound 137]
[1]
  IC50: 6 ± 0.2 µM
[2]
  IC50: 7 ± 0.4 µM
[3]
  IC50: 12 ± 0.6 µM
[4]
  IC50: 21 ± 1 µM

## COc1ccc(N2CCN(c3nc(N)nc(CSc4cc(Cl)c(C)cc4S(=O)(=O)N=C4NCCN4Cc4ccc(C(F)(F)F)cc4)n3)CC2)cc1 [Compound 139]
[1]
  IC50: 6 ± 0.1 µM
[2]
  IC50: 13 ± 1 µM
[3]
  IC50: 12 ± 1 µM
[4]
  IC50: 24 ± 1 µM

## Cc1cc(S(=O)(=O)N=C2NCCN2Cc2ccc(C(F)(F)F)cc2)c(SCc2nc(N)nc(N3CCN(C(c4ccccc4)c4ccccc4)CC3)n2)cc1Cl [Compound 141]
[1]
  IC50: 7.5 ± 0.2 µM
[2]
  IC50: 9.5 ± 0.5 µM
[3]
  IC50: 45 ± 2 µM
[4]
  IC50: 180 ± 9 µM

## Cc1cc(S(=O)(=O)N=C2NCCN2Cc2ccc(C(F)(F)F)cc2)c(SCc2nc(N)nc(N3CCC(Cc4ccccc4)CC3)n2)cc1Cl [Compound 142]
[1]
  IC50: 4.6 ± 0.1 µM
[2]
  IC50: 6.5 ± 0.3 µM
[3]
  IC50: 14 ± 0.2 µM
[4]
  IC50: 29 ± 1 µM

## Cc1cc(S(=O)(=O)N=C2NCCN2Cc2ccc(C(F)(F)F)cc2)c(SCc2nc(N)nc(N3CC=C(c4ccc(F)cc4)CC3)n2)cc1Cl [Compound 143]
[1]
  IC50: 4.6 ± 0.1 µM
[2]
  IC50: 6 ± 0.3 µM
[3]
  IC50: 7 ± 0.4 µM
[4]
  IC50: 19 ± 1 µM

## Cc1cc(S(=O)(=O)N=C2NCCN2Cc2cc(C(F)(F)F)cc(C(F)(F)F)c2)c(SCc2nc(N)nc(N3CCc4ccccc43)n2)cc1Cl [Compound 144]
[1]
  IC50: 8 ± 0.5 µM
[2]
  IC50: 8 ± 0.2 µM
[3]
  IC50: 13 ± 0.2 µM
[4]
  IC50: 27 ± 1 µM

## Cc1cc(S(=O)(=O)N=C2NCCN2Cc2cc(C(F)(F)F)cc(C(F)(F)F)c2)c(SCc2nc(N)nc(N3CCCc4ccccc43)n2)cc1Cl [Compound 145]
[1]
  IC50: 13 ± 0.5 µM
[2]
  IC50: 13 ± 0.8 µM
[3]
  IC50: 16.5 ± 1 µM
[4]
  IC50: 36 ± 1 µM

From paper PMC9267128, “New 2-[(4-Amino-6-N-substituted-1,3,5-triazin-2-yl)methylthio]-N-(imidazolidin-2-ylidene)-4-chloro-5-methylbenzenesulfonamide Derivatives, Design, Synthesis and Anticancer Evaluation” (International Journal of Molecular Sciences, 2022)
